From US20250230193A1, “CYCLIC COMPOUND HAVING SELECTIVE KRAS INHIBITORY EFFECT ON HRAS AND NRAS” (CHUGAI SEIYAKU KABUSHIKI KAISHA, priority 2022, published 2025)

Experiments:
[1] = molecular target: GDP-bound HRAS wild-type protein (Homo sapiens, UniProt P01112); test: Binding to HRAS by surface plasmon resonance (SPR), Single Cycle Kinetics; conditions: SPR; KD ratio class
[2] = test system: human lung cancer strain NCI-H441; test: cells; conditions: NCI-H441, 96 h, read-out: NCI-H441 IC50 (nM)
[3] = molecular target: GDP-bound NRAS wild-type protein (Homo sapiens, UniProt P01111); test: Binding to NRAS by surface plasmon resonance (SPR), Single Cycle Kinetics; conditions: SPR; KD ratio class
GDP-bound NRAS wild-type protein, sequence (P01111 whole entry): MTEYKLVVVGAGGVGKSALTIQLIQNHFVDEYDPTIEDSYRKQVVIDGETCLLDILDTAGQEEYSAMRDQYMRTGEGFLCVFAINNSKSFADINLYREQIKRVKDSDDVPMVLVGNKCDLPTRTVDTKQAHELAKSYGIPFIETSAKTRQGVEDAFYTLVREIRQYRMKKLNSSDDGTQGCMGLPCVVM

GDP-bound HRAS wild-type protein, sequence (P01112 whole entry): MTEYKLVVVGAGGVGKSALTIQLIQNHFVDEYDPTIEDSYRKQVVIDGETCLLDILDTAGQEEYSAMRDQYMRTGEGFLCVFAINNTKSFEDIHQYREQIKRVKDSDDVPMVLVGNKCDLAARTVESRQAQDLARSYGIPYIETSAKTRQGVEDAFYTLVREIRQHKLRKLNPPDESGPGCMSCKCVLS

Row | SMILES | IC50 [2] [nM] | HRAS/KRAS (ratio of KD value for GDP-bound HRAS wild-type protein to KD value for KRAS) [1] | NRAS/KRAS (ratio of KD value for GDP-bound NRAS wild-type protein to KD value for KRAS) [3]
1 | CCO[C@@H]1C[C@H]2C(=O)NC3(CCC3)C(=O)N(C)[C@@H](C(CC)CC)C(=O)N(C)[C@H](C(=O)N(C)C)CC(=O)N(C)[C@@H](C)C(=O)N[C@@H]([C@@H](C)CC)C(=O)N(C)CC(=O)N(C)[C@H]3C/C=C\CCN(C3=O)[C@@H](Cc3ccc(C(F)(F)F)cc3)C(=O)N(C)CC(=O)N[C@@H](CCc3ccc4sccc4c3)C(=O)N2C1 [PP1222] | 301 | A (a compound having 10 or more and less than 20 is denoted as A) | A (a compound having 10 or more and less than 20 is denoted as A)
2 | CCO[C@@H]1C[C@H]2C(=O)NC3(CCC3)C(=O)N(C)[C@@H](C(CC)CC)C(=O)N(C)[C@H](C(=O)N(C)C)CC(=O)N(C)[C@@H](CC)C(=O)N[C@@H]([C@@H](C)CC)C(=O)N(C)CC(=O)N(C)[C@H]3C/C=C\CCN(C3=O)[C@@H](Cc3ccc(C(F)(F)F)cc3)C(=O)N(C)CC(=O)N[C@@H](CCc3ccc4sccc4c3)C(=O)N2C1 [PP1223] | 117 | A (a compound having 10 or more and less than 20 is denoted as A) | AA (a compound having 20 or more is denoted as AA)
3 | CCC[C@H]1C(=O)N[C@@H]([C@@H](C)CC)C(=O)N(C)CC(=O)N(C)[C@H]2C/C=C\CCN(C2=O)[C@@H](Cc2ccc(C(F)(F)F)cc2)C(=O)N(C)CC(=O)N[C@@H](CCc2ccc3sccc3c2)C(=O)N2C[C@H](OCC)C[C@H]2C(=O)NC2(CCC2)C(=O)N(C)[C@@H](C(CC)CC)C(=O)N(C)[C@H](C(=O)N(C)C)CC(=O)N1C [PP1224] | 122 | A (a compound having 10 or more and less than 20 is denoted as A) | A (a compound having 10 or more and less than 20 is denoted as A)
4 | CCO[C@@H]1C[C@H]2C(=O)NC3(CCC3)C(=O)N(C)[C@@H](C(CC)CC)C(=O)N(C)[C@H](C(=O)N(C)C)CC(=O)N(C)[C@@H](CC(C)C)C(=O)N[C@@H]([C@@H](C)CC)C(=O)N(C)CC(=O)N(C)[C@H]3C/C=C\CCN(C3=O)[C@@H](Cc3ccc(C(F)(F)F)cc3)C(=O)N(C)CC(=O)N[C@@H](CCc3ccc4sccc4c3)C(=O)N2C1 [PP1225] | 92.5 | A (a compound having 10 or more and less than 20 is denoted as A) | AA (a compound having 20 or more is denoted as AA)
5 | CCCCCC[C@H]1C(=O)N[C@@H]([C@@H](C)CC)C(=O)N(C)CC(=O)N(C)[C@H]2C/C=C\CCN(C2=O)[C@@H](Cc2ccc(C(F)(F)F)cc2)C(=O)N(C)CC(=O)N[C@@H](CCc2ccc3sccc3c2)C(=O)N2C[C@H](OCC)C[C@H]2C(=O)NC2(CCC2)C(=O)N(C)[C@@H](C(CC)CC)C(=O)N(C)[C@H](C(=O)N(C)C)CC(=O)N1C [PP1226] | 106 | A (a compound having 10 or more and less than 20 is denoted as A) | AA (a compound having 20 or more is denoted as AA)
6 | CCO[C@@H]1C[C@H]2C(=O)NC3(CCC3)C(=O)N(C)[C@@H](C(CC)CC)C(=O)N(C)[C@H](C(=O)N(C)C)CC(=O)N(C)[C@@H](COC)C(=O)N[C@@H]([C@@H](C)CC)C(=O)N(C)CC(=O)N(C)[C@H]3C/C=C\CCN(C3=O)[C@@H](Cc3ccc(C(F)(F)F)cc3)C(=O)N(C)CC(=O)N[C@@H](CCc3ccc4sccc4c3)C(=O)N2C1 [PP1229] | 144 | A (a compound having 10 or more and less than 20 is denoted as A) | A (a compound having 10 or more and less than 20 is denoted as A)

Further lines, with some results ahead:

Row | IC50 [2] [nM] | SMILES | HRAS/KRAS (ratio of KD value for GDP-bound HRAS wild-type protein to KD value for KRAS) [1] | NRAS/KRAS (ratio of KD value for GDP-bound NRAS wild-type protein to KD value for KRAS) [3]
7 | 93.4 | CCO[C@@H]1C[C@H]2C(=O)NC3(CCC3)C(=O)N(C)[C@@H](C(CC)CC)C(=O)N(C)[C@H](C(=O)N(C)C)CC(=O)N(C)[C@@H](C)C(=O)N[C@@H]([C@@H](C)CC)C(=O)N(C)CC(=O)N(C)[C@H]3C/C=C\CCN(C3=O)[C@@H](Cc3ccc(C(F)(F)F)cc3)C(=O)N(C)CC(=O)N[C@@H](CCc3ccc(Cl)c(Cl)c3)C(=O)N2C1 [PP1214] | A (a compound having 10 or more and less than 20 is denoted as A) | AA (a compound having 20 or more is denoted as AA)
8 | 33.4 | CCO[C@@H]1C[C@H]2C(=O)NC3(CCC3)C(=O)N(C)[C@@H](C(CC)CC)C(=O)N(C)[C@H](C(=O)N(C)C)CC(=O)N(C)[C@@H](CC)C(=O)N[C@@H]([C@@H](C)CC)C(=O)N(C)CC(=O)N(C)[C@H]3C/C=C\CCN(C3=O)[C@@H](Cc3ccc(C(F)(F)F)cc3)C(=O)N(C)CC(=O)N[C@@H](CCc3ccc(Cl)c(Cl)c3)C(=O)N2C1 [PP1215] | A (a compound having 10 or more and less than 20 is denoted as A) | AA (a compound having 20 or more is denoted as AA)
9 | 19.8 | CCC[C@H]1C(=O)N[C@@H]([C@@H](C)CC)C(=O)N(C)CC(=O)N(C)[C@H]2C/C=C\CCN(C2=O)[C@@H](Cc2ccc(C(F)(F)F)cc2)C(=O)N(C)CC(=O)N[C@@H](CCc2ccc(Cl)c(Cl)c2)C(=O)N2C[C@H](OCC)C[C@H]2C(=O)NC2(CCC2)C(=O)N(C)[C@@H](C(CC)CC)C(=O)N(C)[C@H](C(=O)N(C)C)CC(=O)N1C [PP1216] | A (a compound having 10 or more and less than 20 is denoted as A) | AA (a compound having 20 or more is denoted as AA)
10 | 17.8 | CCO[C@@H]1C[C@H]2C(=O)NC3(CCC3)C(=O)N(C)[C@@H](C(CC)CC)C(=O)N(C)[C@H](C(=O)N(C)C)CC(=O)N(C)[C@@H](CC(C)C)C(=O)N[C@@H]([C@@H](C)CC)C(=O)N(C)CC(=O)N(C)[C@H]3C/C=C\CCN(C3=O)[C@@H](Cc3ccc(C(F)(F)F)cc3)C(=O)N(C)CC(=O)N[C@@H](CCc3ccc(Cl)c(Cl)c3)C(=O)N2C1 [PP1217] | A (a compound having 10 or more and less than 20 is denoted as A) | AA (a compound having 20 or more is denoted as AA)
11 | 67.9 | CCCCCC[C@H]1C(=O)N[C@@H]([C@@H](C)CC)C(=O)N(C)CC(=O)N(C)[C@H]2C/C=C\CCN(C2=O)[C@@H](Cc2ccc(C(F)(F)F)cc2)C(=O)N(C)CC(=O)N[C@@H](CCc2ccc(Cl)c(Cl)c2)C(=O)N2C[C@H](OCC)C[C@H]2C(=O)NC2(CCC2)C(=O)N(C)[C@@H](C(CC)CC)C(=O)N(C)[C@H](C(=O)N(C)C)CC(=O)N1C [PP1218] | A (a compound having 10 or more and less than 20 is denoted as A) | AA (a compound having 20 or more is denoted as AA)
12 | 21.4 | CCO[C@@H]1C[C@H]2C(=O)NC3(CCC3)C(=O)N(C)[C@@H](C(CC)CC)C(=O)N(C)[C@H](C(=O)N(C)C)CC(=O)N(C)[C@@H](CC3CC3)C(=O)N[C@@H]([C@@H](C)CC)C(=O)N(C)CC(=O)N(C)[C@H]3C/C=C\CCN(C3=O)[C@@H](Cc3ccc(C(F)(F)F)cc3)C(=O)N(C)CC(=O)N[C@@H](CCc3ccc(Cl)c(Cl)c3)C(=O)N2C1 [PP1219] | A (a compound having 10 or more and less than 20 is denoted as A) | AA (a compound having 20 or more is denoted as AA)
13 | 22.2 | CCO[C@@H]1C[C@H]2C(=O)NC3(CCC3)C(=O)N(C)[C@@H](C(CC)CC)C(=O)N(C)[C@H](C(=O)N(C)C)CC(=O)N(C)[C@@H](CC3CCCC3)C(=O)N[C@@H]([C@@H](C)CC)C(=O)N(C)CC(=O)N(C)[C@H]3C/C=C\CCN(C3=O)[C@@H](Cc3ccc(C(F)(F)F)cc3)C(=O)N(C)CC(=O)N[C@@H](CCc3ccc(Cl)c(Cl)c3)C(=O)N2C1 [PP1220] | A (a compound having 10 or more and less than 20 is denoted as A) | AA (a compound having 20 or more is denoted as AA)
14 | 40.6 | CCO[C@@H]1C[C@H]2C(=O)NC3(CCC3)C(=O)N(C)[C@@H](C(CC)CC)C(=O)N(C)[C@H](C(=O)N(C)C)CC(=O)N(C)[C@@H](COC)C(=O)N[C@@H]([C@@H](C)CC)C(=O)N(C)CC(=O)N(C)[C@H]3C/C=C\CCN(C3=O)[C@@H](Cc3ccc(C(F)(F)F)cc3)C(=O)N(C)CC(=O)N[C@@H](CCc3ccc(Cl)c(Cl)c3)C(=O)N2C1 [PP1221] | A (a compound having 10 or more and less than 20 is denoted as A) | AA (a compound having 20 or more is denoted as AA)
15 | 128 | CCO[C@@H]1C[C@H]2C(=O)NC3(CCC3)C(=O)N(C)[C@@H](C(CC)CC)C(=O)N(C)[C@H](C(=O)N(C)C)CC(=O)N(C)[C@@H](CC3CC3)C(=O)N[C@@H]([C@@H](C)CC)C(=O)N(C)CC(=O)N(C)[C@H]3C/C=C\CCN(C3=O)[C@@H](Cc3ccc(C(F)(F)F)cc3)C(=O)N(C)CC(=O)N[C@@H](CCc3ccc4sccc4c3)C(=O)N2C1 [PP1227] | A (a compound having 10 or more and less than 20 is denoted as A) | A (a compound having 10 or more and less than 20 is denoted as A)
